For seven compounds, TGI results are on record in PubChem BioAssay (NCI).

Some test systems named below: A498 renal; A549 NSCLC; CCRF-CEM leukemia; DU-145 prostate; EKVX NSCLC; HCC-2998 colon; HOP-62 NSCLC; M14 melanoma; MCF7 breast; MDA-MB-435; NCI-H226 lung; OVCAR-5 ovarian; RXF 393 renal; SF-539 CNS; SK-MEL-28 melanoma; SK-MEL-5 melanoma.
Holding throughout (assay): growth of human tumour cells (NCI), 48 h

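Five compound concentrations were applied to cells in 96-well plates for 48 hours; endpoints were derived by simple linear interpolation of the resulting dose-response curve. Definition used: TGI = concentration required for complete inhibition of growth.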 A value given as a limit tells only on which side of the number the result lay.

On to `Oc1ccc(-c2c3ccccc3c(-c3ccc(OCCBr)cc3)c3ccccc23)cc1`, for which the TGI in the assay with A498 renal was 40 µM; with A549 NSCLC, 69.1 µM; in the assay on CCRF-CEM leukemia it was greater than 100 µM; in the assay with DU-145 prostate, greater than 100 µM; with EKVX NSCLC it was greater than 100 µM; in the assay on HCC-2998 colon, greater than 100 µM. For the same compound, the TGI with HOP-62 NSCLC is 50.6 µM; in the assay with M14 melanoma, 37 µM; with MCF7 breast, 32 µM; with MDA-MB-435, 42 µM; with NCI-H226 lung it was 54.5 µM; with OVCAR-5 ovarian, greater than 100 µM. For the same compound, the TGI in the assay with RXF 393 renal was found to be 64.3 µM; with SF-539 CNS it was 32.4 µM; in the assay on SK-MEL-28 melanoma it was 51 µM; in the assay with SK-MEL-5 melanoma it was 36.3 µM.
Regarding `CC1=NN(C(=O)CC(=O)Nc2ccccc2C)C(=O)C1N=Nc1ccc(S(=O)(=O)c2ccc(N=NC3C(=O)N(C(=O)CC(=O)Nc4ccccc4C)N=C3C)cc2)cc1` (configuration not stated), the TGI with A498 renal, in the assay with A549 NSCLC, in the assay on CCRF-CEM leukemia, in the assay on DU-145 prostate, in the assay with EKVX NSCLC and with HCC-2998 colon was greater than 100 µM in each case. Besides, the TGI with HOP-62 NSCLC, in the assay with M14 melanoma, with MCF7 breast, with MDA-MB-435, in the assay on NCI-H226 lung and in the assay with OVCAR-5 ovarian was greater than 100 µM in each case. In addition, the TGI with RXF 393 renal, in the assay on SF-539 CNS, with SK-MEL-28 melanoma and in the assay with SK-MEL-5 melanoma was greater than 100 µM in each case.
Regarding `CCOC(=O)C1(Cc2ccccc2)Cc2cc3c(cc2C1=O)CCC3` (configuration not stated), the TGI with A498 renal, in the assay with A549 NSCLC, in the assay on CCRF-CEM leukemia, in the assay with DU-145 prostate, with EKVX NSCLC and in the assay with HCC-2998 colon was greater than 100 µM each time. The TGI in the assay on HOP-62 NSCLC, with M14 melanoma, with MCF7 breast, with MDA-MB-435, in the assay on NCI-H226 lung and with OVCAR-5 ovarian was greater than 100 µM throughout. The TGI with RXF 393 renal, with SF-539 CNS, with SK-MEL-28 melanoma and with SK-MEL-5 melanoma was greater than 100 µM each time.
Regarding `CC(Oc1ccccc1)C(=O)NN` (configuration not stated), the TGI with A498 renal, in the assay on A549 NSCLC, in the assay with CCRF-CEM leukemia, in the assay on DU-145 prostate, in the assay with EKVX NSCLC and in the assay with HCC-2998 colon was greater than 100 µM throughout. Moreover, the TGI in the assay with HOP-62 NSCLC, with M14 melanoma, with MCF7 breast, with MDA-MB-435, with NCI-H226 lung and in the assay on OVCAR-5 ovarian was greater than 100 µM throughout. In addition, the TGI in the assay with RXF 393 renal, with SF-539 CNS, with SK-MEL-28 melanoma and with SK-MEL-5 melanoma was greater than 100 µM throughout.
As to `CC(C)=CCC[C@](C)(O)[C@H]1CC[C@]2(C)[C@@H]1[C@H](O)C[C@@H]1[C@@]3(C)CC[C@H](O[C@@H]4O[C@H](CO)[C@@H](O)[C@H](O)[C@H]4O)C(C)(C)[C@@H]3CC[C@]12C`, the TGI with A498 renal amounted to 35.4 µM; in the assay on A549 NSCLC it was 37.7 µM; with CCRF-CEM leukemia, 43.8 µM; in the assay with DU-145 prostate it was 35.1 µM; in the assay on EKVX NSCLC, 39.4 µM; in the assay on HCC-2998 colon, 49.4 µM. The TGI in the assay on HOP-62 NSCLC is 47.8 µM; with M14 melanoma it was 46 µM; in the assay with MCF7 breast, 32.2 µM; in the assay with MDA-MB-435, 36.1 µM; in the assay on NCI-H226 lung it was 34.6 µM; in the assay on OVCAR-5 ovarian, 49.3 µM. Also, the TGI turned out to be 32.2 µM with RXF 393 renal, 38.8 µM in the assay on SF-539 CNS, 34.8 µM in the assay with SK-MEL-28 melanoma and 32.1 µM in the assay with SK-MEL-5 melanoma.
`CCc1ccc(CCC(=O)O)nc1`: the TGI in the assay with A498 renal, with A549 NSCLC, with CCRF-CEM leukemia, with DU-145 prostate, in the assay with EKVX NSCLC and in the assay with HCC-2998 colon was greater than 100 µM in each case. For the same compound, the TGI in the assay on HOP-62 NSCLC, in the assay with M14 melanoma, in the assay on MCF7 breast, in the assay on MDA-MB-435, in the assay with NCI-H226 lung and in the assay with OVCAR-5 ovarian was greater than 100 µM throughout. The TGI with RXF 393 renal, in the assay on SF-539 CNS, in the assay on SK-MEL-28 melanoma and in the assay on SK-MEL-5 melanoma was greater than 100 µM throughout.
In the case of `CN(C)C1(C(=O)O)CC1`, the TGI with A498 renal, in the assay with A549 NSCLC, in the assay with CCRF-CEM leukemia, in the assay on DU-145 prostate, in the assay with EKVX NSCLC and with HCC-2998 colon was greater than 100 µM each time. Also, the TGI in the assay with HOP-62 NSCLC, in the assay on M14 melanoma, in the assay on MCF7 breast, in the assay with MDA-MB-435, in the assay on NCI-H226 lung and in the assay on OVCAR-5 ovarian was greater than 100 µM throughout. Moreover, the TGI with RXF 393 renal, with SF-539 CNS, in the assay on SK-MEL-28 melanoma and in the assay with SK-MEL-5 melanoma was greater than 100 µM in each case.
